Experimental data from patent US8722663B2, “Di-substituted pyridine derivatives as anticancers” (Otsuka Pharmaceutical Co., Ltd., priority 2010, dated 2014).
Where a name gives a salt, the structure may show the parent alone.

Key:
[1] = system: human hepatic cancer cell line (HuH-7); assay: Growth inhibition of HuH-7 cells, sulforhodamine B method; assay type: cell-based; details: Homo sapiens, 120 h, 5 days with test compound
Experimental: (§1) Growth inhibition of a human breast cancer cell line (MDA-MB-468) was determined by the sulforhodamine B method based on the method of Skehan P. et al. (J Natl Cancer Inst. 1990 Jul. 4; 82(13): 1107-12). In the study, MDA-MB-468 cells were seeded on DMEM medium containing 10% fetal bovine serum in a 96-well microplate. After 24-h incubation at 37° C. in the presence of 5% carbon dioxide, the test compound was added and the cells were incubated for another 5 days. After incubation, a trichloroacetic acid solution was added to yield the final concentration of 10% and the cells were left to stand at 4° C. for 1 hour to fix. Then, the cells were washed with water to remove the medium and trichloroacetic acid and dried in the air. The dried cells were stored at 4° C. until they were stained with sulforhodamine B. To each well, 1% acetic acid solution containing 0.4% sulforhodamine B was added and left to stand for 20 to 30 minutes at room temperature. After discarding the supernatant, each well was washed with 1% acetic acid solution, and 10 mM Tris([…]) solution was added while stirring to elute the dye taken into the cells. Then, the optical density was determined at the measurement wavelength of 492 nm and the reference wavelength of 690 nm, and the difference was calculated. The cell growth activity in each well was defined as the value determined by subtracting the OD in the control well not containing cells (the difference in absorbance between 492 nm and 690 nm) from that in the test well.
(§2) The 50% inhibitory concentration (IC50 (nM)) of the test compound was determined by comparing the cell growth activity in the well containing the test compound with that of the control not containing the test compound.
The growth inhibition on a human hepatic cancer cell line (HuH-7) was also determined by the above method.

[2] = system: human breast cancer cell line (MDA-MB-468); assay: Growth inhibition of MDA-MB-468 cells, sulforhodamine B method; assay type: cell-based; details: 120 h, 5 days with test compound
Experimental: as §1, §2

Row | SMILES | IC50 [1] [nM] | IC50 [2] [nM] | melting point [°C]
1 | CCOc1ccc(OCCOc2ccc(CN3CCN(C(=O)/C=C/c4cc(C)c(Oc5ccc(OCc6ccc(C)cc6)cn5)c(Cl)c4)CC3)cc2)cc1 [Example 315, (E)-3-[3-Chloro-5-methyl-4-({5-[(4-methylbenzyl)oxy]pyridin-2-yl}oxy)phenyl]-1-(4-{4-[2-(4-ethoxyphenoxy)ethoxy]benzyl}piperazin-1-yl)prop-2-en-1-one] | < 10 |  | 
2 | Cc1ccc(CN2CCN(C(=O)/C=C/c3cc(C)c(Oc4ccc(OCc5ccc(C(C)C)cc5)cn4)c(Cl)c3)CC2)cc1 [Example 358, (E)-3-{3-Chloro-5-methyl-4-[(5-{[4-(propan-2-yl)benzyl]oxy}pyridin-2-yl)oxy]phenyl}-1-[4-(4-methylbenzyl)piperazin-1-yl]prop-2-en-1-one] | < 10 |  | 
3 | Cc1cc(/C=C/C(=O)N2CCN(Cc3ccc(CCOCc4ccc(Cl)cc4)cc3)CC2)cc(C)c1Oc1ccc(OCc2ccncc2)cn1 [Example 384, (E)-1-[4-(4-{2-[(4-chlorobenzyl)oxy]ethyl}benzyl)piperazin-1-yl]-3-(3,5-dimethyl-4-{[5-(pyridin-4-ylmethoxy)pyridin-2-yl]oxy}phenyl)prop-2-en-1-one] | < 10 |  | 
4 | C/C(=C\c1cc(C)c(Oc2ccc(OCc3ccc(C)cc3)cn2)c(Cl)c1)C(=O)N1CCN(Cc2ccc(CCOc3ccc(C)cc3)cc2)CC1.Cl [Example 411, (E)-3-[3-Chloro-5-methyl-4-({5-[(4-methylbenzyl)oxy]pyridin-2-yl}oxy)phenyl]-2-methyl-1-(4-{4-[2-(4-methylphenoxy)ethyl]benzyl}piperazin-1-yl)prop-2-en-1-one hydrochloride] |  | < 10 | 134.7 to 136.4
5 | Cc1cc(/C=C/C(=O)N2CCN(Cc3ccc(CCOc4ccc(F)cc4)cc3)CC2)cc(Cl)c1Oc1ccc(OCc2cccc(Cl)c2F)cn1.Cl [Example 485, (E)-3-[3-Chloro-4-({5-[(3-chloro-2-fluorobenzyl)oxy]pyridin-2-yl}oxy)-5-methylphenyl]-1-(4-{4-[2-(4-fluorophenoxy)ethyl]benzyl}piperazin-1-yl)prop-2-en-1-one hydrochloride] |  | < 10 | 228.9 to 229.4
6 | Cc1ccc(OCCc2ccc(CN3CCN(C(=O)/C=C/c4cc(C)c(Oc5ccc(OCc6cccc(F)c6F)cn5)c(Cl)c4)CC3)cc2)cc1 [Example 487, (E)-3-[3-Chloro-4-({5-[(2,3-difluorobenzyl)oxy]pyridin-2-yl}oxy)-5-methylphenyl]-1-(4-{4-[2-(4-methylphenoxy)ethyl]benzyl}piperazin-1-yl)prop-2-en-1-one hydrochloride] |  | < 10 | 
7 | Cc1ccc(COc2ccc(Oc3c(C)cc(/C=C/C(=O)N4CCN(Cc5ccc(CC(C)Oc6ccc(C)cc6)cc5)CC4)cc3Cl)nc2)cc1 (centres unmarked) [Example 534, (E)-3-[3-Chloro-5-methyl-4-({5-[(4-methylbenzyl)oxy]pyridin-2-yl}oxy)phenyl]-1-(4-{4-[2-(4-methylphenoxy)propyl]benzyl}piperazin-1-yl)prop-2-en-1-one hydrochloride] |  | < 10 | 
8 | Cc1cc(/C=C/C(=O)N2CCN(Cc3ccc(CCOc4ccc(Cl)cc4)c(F)c3)CC2)cc(C)c1Oc1ccc(OCc2ccc(C#N)cc2)cn1.Cl [Example 614, 4-{[(6-{4-[(E)-3-(4-{4-[2-(4-Chlorophenoxy)ethyl]-3-fluorobenzyl}piperazin-1-yl)-3-oxoprop-1-en-1-yl]-2,6-dimethylphenoxy}pyridin-3-yl)oxy]methyl}benzonitrile hydrochloride] |  | < 10 | 240.5 to 243.5
9 | Cc1cc(/C=C/C(=O)N2CCN(Cc3ccc(CCOc4ccc(C(F)(F)F)cc4)cc3F)CC2)cc(C)c1Oc1ccc(OCc2ccc(C#N)cc2)cn1 [Example 616, 4-({[6-(4-{(E)-3-[4-(2-Fluoro-4-{2-[4-(trifluoromethyl)phenoxy]ethyl}benzyl)piperazin-1-yl]-3-oxoprop-1-en-1-yl}-2,6-dimethylphenoxy)pyridin-3-yl]oxy}methyl)benzonitrile hydrochloride] |  | < 10 | 
10 | Cc1cc(/C=C/C(=O)N2CCN(Cc3ccc(CCCOc4ccc(F)cc4)cc3)CC2)cc(Cl)c1Oc1ccc(OCc2ccc(C#N)cc2)cn1.Cl [Example 618, 4-{[(6-{2-Chloro-4-[(E)-3-(4-{4-[3-(4-fluorophenoxy)propyl]benzyl}piperazin-1-yl)-3-oxoprop-1-en-1-yl]-6-methylphenoxy}pyridin-3-yl)oxy]methyl}benzonitrile hydrochloride] |  | < 10 | 166.2 to 166.7
11 | Cc1cc(/C=C/C(=O)N2CCN(Cc3ccc(COc4ccc(OC(C)C)cc4)c(F)c3)CC2)cc(Cl)c1Oc1ccc(OCc2ccc(C#N)cc2)cn1.Cl [Example 640, 4-({[6-(2-Chloro-4-{(E)-3-[4-(3-fluoro-4-{[4-(propan-2-yloxy)phenoxy]methyl}benzyl)-piperazin-1-yl]-3-oxoprop-1-en-1-yl}-6-methylphenoxy)pyridin-3-yl]oxy}methyl)benzonitrile hydrochloride] |  | < 10 | 141.8 to 141.9
12 | Cc1cc(/C=C/C(=O)N2CCN(Cc3ccc(COc4ccc(F)cc4)c(F)c3)CC2)cc(Cl)c1Oc1ccc(OCc2ccc(C#N)cc2)cn1.Cl [Example 641, 4-{[(6-{2-Chloro-4-[(E)-3-(4-{3-fluoro-4-[(4-fluorophenoxy)methyl]benzyl}piperazin-1-yl)-3-oxoprop-1-en-1-yl]-6-methylphenoxy}pyridin-3-yl)oxy]methyl}benzonitrile hydrochloride] |  | < 10 | 218 to 220.5
13 | Cc1cc(/C=C/C(=O)N2CCN(Cc3ccc(COc4ccc(C(C)C)cc4)cc3)CC2)cc(C)c1Oc1ccc(OCc2cscn2)cn1 [Example 648, (E)-3-(3,5-Dimethyl-4-{[5-(1,3-thiazol-4-ylmethoxy)pyridin-2-yl]oxy}phenyl)-1-[4-(4-{[4-(propan-2-yl)phenoxy]methyl}benzyl)piperazin-1-yl]prop-2-en-1-one hydrochloride] |  | < 10 | 
14 | Br.C/C(C(=O)N1CCN(Cc2ccc(CCOc3ccc(C)cc3)cc2)CC1)=C(/C)c1cc(C)c(Oc2ccc(OCc3ccc(C)cc3)cn2)c(Cl)c1 [Example 706, (E)-3-[3-Chloro-5-methyl-4-({5-[(4-methylbenzyl)oxy]pyridin-2-yl}oxy)phenyl]-2-methyl-1-(4-{4-[2-(4-methylphenoxy)ethyl]benzyl}piperazin-1-yl)but-2-en-1-one hydrobromide] |  | < 10 | 205.5 to 206.5
15 | Br.C/C(=C\C(=O)N1CCN(Cc2ccc(CCOc3ccc(C)cc3)cc2)CC1)c1cc(C)c(Oc2ccc(OCc3ccc(C)cc3)cn2)c(Cl)c1 [Example 708, (E)-3-[3-Chloro-5-methyl-4-({5-[(4-methylbenzyl)oxy]pyridin-2-yl}oxy)phenyl]-1-(4-{4-[2-(4-methylphenoxy)ethyl]benzyl}piperazin-1-yl)but-2-en-1-one hydrobromide] |  | < 10 | 156.5 to 158.2
16 | COc1ccc(COc2ccc(Oc3c(C)cc(/C=C/C(=O)N4CCN(Cc5ccc(CC(C)Oc6ccc(F)cc6)cc5)CC4)cc3C)nc2)cc1 (centres unmarked) [Example 725, (E)-1-(4-{4-[2-(4-Fluorophenoxy)propyl]benzyl}piperazin-1-yl)-3-[4-({5-[(4-methoxybenzyl)-oxy]pyridin-2-yl}oxy)-3,5-dimethylphenyl]prop-2-en-1-one hydrobromide] |  | < 10 | 
17 | C/C(=C\C(=O)N1CCN(Cc2ccc(CCOc3ccc(F)cc3)cc2)CC1)c1cc(C)c(Oc2ccc(OCc3ccc(C)cc3)cn2)c(Cl)c1.O=C(O)C(=O)O [Example 746, (E)-3-[3-Chloro-5-methyl-4-({5-[(4-methylbenzyl)oxy]pyridin-2-yl}oxy)phenyl]-1-(4-{4-[2-(4-fluorophenoxy)ethyl]benzyl}piperazin-1-yl)but-2-en-1-one ethanedioate] |  | < 10 | 211.3 to 211.7
18 | Cc1cc(/C=C/C(=O)N2CCN(Cc3ccc(Cl)cc3)CC2)cc(Cl)c1Oc1ccc(OCCc2ccc(Cl)cc2)cn1.Cl [Example 765, (E)-1-[4-(4-Chlorobenzyl)piperazin-1-yl]-3-[3-chloro-4-({5-[2-(4-chlorophenyl)ethoxy]pyridin-2-yl}oxy)-5-methylphenyl]prop-2-en-1-one hydrochloride] |  | < 10 | 220 to 220.9
19 | Cc1ccc(CN2CCN(C(=O)/C=C/c3cc(C)c(Oc4ccc(OCc5ccc(F)cc5)cn4)c(Cl)c3)CC2)cc1.Cl [Example 779, (E)-3-[3-Chloro-4-({5-[(4-fluorobenzyl)oxy]pyridin-2-yl}oxy)-5-methylphenyl]-1-[4-(4-methylbenzyl)piperazin-1-yl]prop-2-en-1-one hydrochloride] |  | < 10 | 223.9 to 224.5
20 | Cc1ccc(CN2CCN(C(=O)/C=C/c3cc(C)c(Oc4ccc(OCc5ccc(Cl)cc5)cn4)c(Cl)c3)CC2)cc1.Cl [Example 781, (E)-3-[3-Chloro-4-({5-[(4-chlorobenzyl)oxy]pyridin-2-yl}oxy)-5-methylphenyl]-1-[4-(4-methylbenzyl)piperazin-1-yl]prop-2-en-1-one hydrochloride] |  | < 10 | 223.1 to 224
